Assay results: PubChem BioAssay (NCI)
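Assay format: 96-well plates, 48-hour exposure. TGI marks complete inhibition of growth.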

Columns and labels:
Assay in all cases: NCI anticancer screen, dose series, 48 h
NCI-H23 lung = system: NCI-H23 lung
T-47D breast = system: T-47D breast
MDA-MB-231 breast = system: MDA-MB-231 breast
UO-31 renal = system: UO-31 renal
HCT-15 colon = system: HCT-15 colon
DU-145 prostate = system: DU-145 prostate
SK-MEL-2 melanoma = system: SK-MEL-2 melanoma
OVCAR-8 ovarian = system: OVCAR-8 ovarian
HOP-62 NSCLC = system: HOP-62 NSCLC
SF-295 CNS = system: SF-295 CNS
NCI-H522 lung = system: NCI-H522 lung
SNB-75 CNS = system: SNB-75 CNS
SF-268 CNS = system: SF-268 CNS
786-0 renal = system: 786-0 renal
SN12C renal = system: SN12C renal
MDA-MB-435 = system: MDA-MB-435
KM12 colon = system: KM12 colon
SK-MEL-28 melanoma = system: SK-MEL-28 melanoma
OVCAR-5 ovarian = system: OVCAR-5 ovarian
CCRF-CEM leukemia = system: CCRF-CEM leukemia
MCF7 breast = system: MCF7 breast
OVCAR-3 ovarian = system: OVCAR-3 ovarian
OVCAR-4 ovarian = system: OVCAR-4 ovarian
EKVX NSCLC = system: EKVX NSCLC
SNB-19 CNS = system: SNB-19 CNS
UACC-62 melanoma = system: UACC-62 melanoma
HCT-116 colon = system: HCT-116 colon
SK-MEL-5 melanoma = system: SK-MEL-5 melanoma
RXF 393 renal = system: RXF 393 renal
RPMI-8226 leukemia = system: RPMI-8226 leukemia
SW-620 colon = system: SW-620 colon
NCI-H226 lung = system: NCI-H226 lung
U251 CNS = system: U251 CNS
IGROV1 ovarian = system: IGROV1 ovarian
MOLT-4 leukemia = system: MOLT-4 leukemia
MALME-3M melanoma = system: MALME-3M melanoma
HCC-2998 colon = system: HCC-2998 colon
HT29 colon = system: HT29 colon
SK-OV-3 ovarian = system: SK-OV-3 ovarian
BT-549 breast = system: BT-549 breast
A549 NSCLC = system: A549 NSCLC
NCI/ADR-RES ovarian = system: NCI/ADR-RES ovarian
K-562 leukemia = system: K-562 leukemia
COLO 205 colon = system: COLO 205 colon
CAKI-1 renal = system: CAKI-1 renal
NCI-H460 lung = system: NCI-H460 lung
HS 578T breast = system: HS 578T breast
PC-3 prostate = system: PC-3 prostate
UACC-257 melanoma = system: UACC-257 melanoma
TK-10 renal = system: TK-10 renal
ACHN renal = system: ACHN renal
MDA-N = system: MDA-N
M14 melanoma = system: M14 melanoma
HOP-92 NSCLC = system: HOP-92 NSCLC
A498 renal = system: A498 renal
LOX IMVI melanoma = system: LOX IMVI melanoma
SF-539 CNS = system: SF-539 CNS
HL-60(TB) leukemia = system: HL-60(TB) leukemia

CN1C(=O)C(/C=N/NC(=O)c2cccnc2)C(N)N(C)C1=O (configuration not stated)
TGI (NCI-H23 lung): > 100 µM | TGI (T-47D breast): > 100 µM | TGI (MDA-MB-231 breast): > 100 µM | TGI (UO-31 renal): > 100 µM | TGI (HCT-15 colon): > 100 µM | TGI (DU-145 prostate): > 100 µM | TGI (SK-MEL-2 melanoma): > 100 µM | TGI (OVCAR-8 ovarian): > 100 µM | TGI (HOP-62 NSCLC): > 100 µM | TGI (SF-295 CNS): > 100 µM | TGI (NCI-H522 lung): > 100 µM | TGI (SNB-75 CNS): > 100 µM | TGI (SF-268 CNS): > 100 µM | TGI (786-0 renal): > 100 µM | TGI (SN12C renal): > 100 µM | TGI (MDA-MB-435): > 100 µM | TGI (KM12 colon): > 100 µM | TGI (SK-MEL-28 melanoma): > 100 µM | TGI (OVCAR-5 ovarian): > 100 µM | TGI (CCRF-CEM leukemia): > 100 µM | TGI (MCF7 breast): > 100 µM | TGI (OVCAR-3 ovarian): > 100 µM | TGI (OVCAR-4 ovarian): > 100 µM | TGI (EKVX NSCLC): > 100 µM | TGI (SNB-19 CNS): > 100 µM | TGI (UACC-62 melanoma): > 100 µM | TGI (HCT-116 colon): > 100 µM | TGI (SK-MEL-5 melanoma): > 100 µM | TGI (RXF 393 renal): > 100 µM | TGI (RPMI-8226 leukemia): > 100 µM | TGI (SW-620 colon): > 100 µM | TGI (NCI-H226 lung): > 100 µM | TGI (U251 CNS): > 100 µM | TGI (IGROV1 ovarian): > 100 µM | TGI (MOLT-4 leukemia): > 100 µM | TGI (MALME-3M melanoma): > 100 µM | TGI (HCC-2998 colon): > 100 µM | TGI (HT29 colon): > 100 µM | TGI (SK-OV-3 ovarian): > 100 µM | TGI (BT-549 breast): > 100 µM | TGI (A549 NSCLC): > 100 µM | TGI (NCI/ADR-RES ovarian): > 100 µM | TGI (K-562 leukemia): > 100 µM | TGI (COLO 205 colon): > 100 µM | TGI (CAKI-1 renal): > 100 µM | TGI (NCI-H460 lung): > 100 µM | TGI (HS 578T breast): > 100 µM | TGI (PC-3 prostate): > 100 µM | TGI (UACC-257 melanoma): > 100 µM | TGI (TK-10 renal): > 100 µM | TGI (ACHN renal): > 100 µM | TGI (MDA-N): > 100 µM | TGI (M14 melanoma): > 100 µM

COc1ccc(Cc2c(N)[nH]c(=O)[nH]c2=O)cc1
TGI (NCI-H23 lung): > 100 µM | TGI (T-47D breast): > 100 µM | TGI (MDA-MB-231 breast): > 100 µM | TGI (UO-31 renal): > 100 µM | TGI (HCT-15 colon): > 100 µM | TGI (SK-MEL-2 melanoma): > 100 µM | TGI (OVCAR-8 ovarian): > 100 µM | TGI (HOP-62 NSCLC): > 100 µM | TGI (HOP-92 NSCLC): > 100 µM | TGI (SF-295 CNS): > 100 µM | TGI (NCI-H522 lung): > 100 µM | TGI (SNB-75 CNS): > 100 µM | TGI (SF-268 CNS): > 100 µM | TGI (786-0 renal): > 100 µM | TGI (SN12C renal): > 100 µM | TGI (MDA-MB-435): > 100 µM | TGI (KM12 colon): > 100 µM | TGI (SK-MEL-28 melanoma): > 100 µM | TGI (OVCAR-5 ovarian): > 100 µM | TGI (OVCAR-3 ovarian): > 100 µM | TGI (OVCAR-4 ovarian): > 100 µM | TGI (EKVX NSCLC): > 100 µM | TGI (SNB-19 CNS): > 100 µM | TGI (UACC-62 melanoma): > 100 µM | TGI (HCT-116 colon): > 100 µM | TGI (SK-MEL-5 melanoma): > 100 µM | TGI (RXF 393 renal): > 100 µM | TGI (RPMI-8226 leukemia): > 100 µM | TGI (A498 renal): > 100 µM | TGI (SW-620 colon): > 100 µM | TGI (NCI-H226 lung): > 100 µM | TGI (U251 CNS): > 100 µM | TGI (IGROV1 ovarian): > 100 µM | TGI (LOX IMVI melanoma): > 100 µM | TGI (MALME-3M melanoma): > 100 µM | TGI (HCC-2998 colon): > 100 µM | TGI (HT29 colon): > 100 µM | TGI (SK-OV-3 ovarian): > 100 µM | TGI (BT-549 breast): > 100 µM | TGI (A549 NSCLC): > 100 µM | TGI (NCI/ADR-RES ovarian): > 100 µM | TGI (K-562 leukemia): > 100 µM | TGI (COLO 205 colon): > 100 µM | TGI (CAKI-1 renal): > 100 µM | TGI (NCI-H460 lung): > 100 µM | TGI (HS 578T breast): > 100 µM | TGI (PC-3 prostate): > 100 µM | TGI (SF-539 CNS): > 100 µM | TGI (UACC-257 melanoma): > 100 µM | TGI (TK-10 renal): > 100 µM | TGI (ACHN renal): > 100 µM | TGI (MDA-N): > 100 µM | TGI (M14 melanoma): > 100 µM

COC(=O)[C@]1(C)CC[C@]2(C)CC[C@]3(C)C4[C@H]5Oc6c(cc7c(c6C)CCC6[C@@]7(C)CC[C@@]7(C)C8[C@](C)(CCC[C@@]8(C)C(=O)OC)CC[C@]67C)O[C@H]5c5c(cc6c(c5C)O[C@@]5(C)C7=CC=C8[C@@](C)(CC[C@@]9(C)[C@@H]%10C[C@](C)(C(=O)OC)CC[C@]%10(C)CC[C@]89C)C7=CC(=O)[C@@]5(O)O6)[C@]4(C)CC[C@@]3(C)C2C1 (some centres not stated)
TGI (NCI-H23 lung): > 12.5 µM | TGI (T-47D breast): 6.94 µM | TGI (MDA-MB-231 breast): 7.08 µM | TGI (UO-31 renal): 5.11 µM | TGI (HCT-15 colon): 11.5 µM | TGI (DU-145 prostate): > 12.5 µM | TGI (SK-MEL-2 melanoma): 6.14 µM | TGI (OVCAR-8 ovarian): 5.95 µM | TGI (HOP-62 NSCLC): > 12.5 µM | TGI (HOP-92 NSCLC): 4.5 µM | TGI (SF-295 CNS): > 12.5 µM | TGI (NCI-H522 lung): 5.9 µM | TGI (SNB-75 CNS): 10.5 µM | TGI (SF-268 CNS): > 12.5 µM | TGI (786-0 renal): 3.59 µM | TGI (SN12C renal): 5.31 µM | TGI (MDA-MB-435): 12.2 µM | TGI (KM12 colon): > 12.5 µM | TGI (SK-MEL-28 melanoma): > 12.5 µM | TGI (OVCAR-5 ovarian): > 12.5 µM | TGI (CCRF-CEM leukemia): 4.9 µM | TGI (MCF7 breast): 9.73 µM | TGI (OVCAR-3 ovarian): 5.91 µM | TGI (OVCAR-4 ovarian): > 12.5 µM | TGI (EKVX NSCLC): 10.5 µM | TGI (SNB-19 CNS): > 12.5 µM | TGI (UACC-62 melanoma): 4.61 µM | TGI (HCT-116 colon): 6.63 µM | TGI (SK-MEL-5 melanoma): > 12.5 µM | TGI (RXF 393 renal): 4.01 µM | TGI (HL-60(TB) leukemia): > 12.5 µM | TGI (A498 renal): > 12.5 µM | TGI (SW-620 colon): 6.69 µM | TGI (NCI-H226 lung): > 12.5 µM | TGI (U251 CNS): 11.4 µM | TGI (IGROV1 ovarian): 5.81 µM | TGI (MOLT-4 leukemia): 4.85 µM | TGI (LOX IMVI melanoma): 4.56 µM | TGI (MALME-3M melanoma): > 12.5 µM | TGI (HT29 colon): > 12.5 µM | TGI (SK-OV-3 ovarian): > 12.5 µM | TGI (BT-549 breast): > 12.5 µM | TGI (A549 NSCLC): > 12.5 µM | TGI (NCI/ADR-RES ovarian): > 12.5 µM | TGI (K-562 leukemia): 11.6 µM | TGI (COLO 205 colon): > 12.5 µM | TGI (CAKI-1 renal): > 12.5 µM | TGI (NCI-H460 lung): > 12.5 µM | TGI (HS 578T breast): > 12.5 µM | TGI (PC-3 prostate): > 12.5 µM | TGI (SF-539 CNS): 5.41 µM | TGI (UACC-257 melanoma): 6.52 µM | TGI (TK-10 renal): 6.07 µM | TGI (ACHN renal): > 12.5 µM | TGI (MDA-N): 4.02 µM | TGI (M14 melanoma): > 12.5 µM
